Test results from patent US7786116B2, “2-amino-quinoline derivatives useful as inhibitors of β-secretase (BACE)” (Janssen Pharmaceutica N.V., priority 2008, dated 2010).

Biological target: human BACE-1 (Homo sapiens, UniProt P56817)
Experiment: in vitro BACE Assay-1 (CEREP, fluorogenic substrate)
Assay type: biochemical
Conditions: for % Inh @ 1 μM / inhibition at 1 µM: test compound at 1 μM; for % Inh @ 10 μM / inhibition at 10 µM: test compound at 10 μM; for IC50: recombinant enzyme, pH 4.5, 60 min at 37° C.
Description: This assay was run by CEREP (Catalog Ref. 761-B, Referred to SOP No. 1C131; ERMOLIEFF, J., LOY, J. A., KOELSCH, G. and TANG, J., Proteolytic activation of recombinant pro-memapsin 2 (pro-BACE) studied with new fluorogenic substrates, Biochemistry, (2000) Vol. 39, p. 12450).
More specifically the assay, run at 50 μL in a 96 well plate, evaluated the effect of test compound on the activity of the human BACE-1 quantified by measuring the formation of Mca-S-E-V-N-L-NH2 from Mca-S-E-V-N-L-D-A-E-F-R-K(Dnp)-R—R—NH2, using a recombinant enzyme.
The test compound, reference compound or water (control) was added to a buffer containing 0.09 M sodium acetate (pH 4.5) and 0.25 μg BACE-1. Compound interference with the fluorimetric detection method due to autofluorescence was then checked by measurements at the wavelengths defined to evaluate the enzyme activity. Thereafter, the reaction was initiated by adding 7.5 μM of the substrate Mca-S-E-V-N-L-D-A-E-F-R-K(Dnp)-R—R—NH2 and the mixture was incubated for 60 min at 37° C. For control basal measurement, the substrate was omitted from the reaction mixture. Immediately after the incubation, the fluorescence intensity emitted by the reaction product Mca-S-E-V-N-L-NH2 was measured at λex=320 nm and λem=405 nm using a microplate reader (Ultra, Tecan). The standard inhibitory reference compound was OM99-2, which was tested in each experiment at several concentrations to obtain an inhibition curve from which its IC50 value was calculated.
Representative compounds of the present invention were tested in the assay as described above, with results as listed in Table 3, below.

Sequence of human BACE-1 (P56817 46-501): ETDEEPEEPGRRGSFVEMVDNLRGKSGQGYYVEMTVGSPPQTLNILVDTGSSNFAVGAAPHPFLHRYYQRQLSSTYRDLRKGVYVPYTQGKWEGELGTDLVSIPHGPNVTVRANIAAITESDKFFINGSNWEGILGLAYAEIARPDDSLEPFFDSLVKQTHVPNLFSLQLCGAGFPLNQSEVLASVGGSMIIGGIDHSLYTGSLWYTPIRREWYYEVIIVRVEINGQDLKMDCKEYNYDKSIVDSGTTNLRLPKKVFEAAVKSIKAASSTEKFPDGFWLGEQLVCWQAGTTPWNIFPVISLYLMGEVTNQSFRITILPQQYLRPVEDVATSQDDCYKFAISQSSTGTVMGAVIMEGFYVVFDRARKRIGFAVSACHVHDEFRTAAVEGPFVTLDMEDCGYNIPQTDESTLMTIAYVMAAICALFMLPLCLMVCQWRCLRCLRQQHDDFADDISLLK

Compound | % Inh @ 10 μM [%] | IC50 [nM] | inhibition at 10 µM [%] | further results
CN(C(=O)CCC(c1cc2cc(-c3ccccc3F)ccc2nc1N)C1CCCCC1)C1CCCCC1 (single isomer, unassigned) [Compound 11] |  |  |  | % Inh @ 1 μM: 28%
Nc1nc2ccc(-c3ccccc3F)cc2cc1C(CCC(=O)NCCO)C1CCOCC1 (stereo not drawn) [Compound 1] | 34 |  |  | 
Nc1nc2ccc(-c3ccccc3F)cc2cc1C(CCC(=O)NCC1CC1)C1CCOCC1 (stereo not drawn) [Compound 2] | 59 |  |  | 
CN(CCCC(c1cc2cc(-c3ccccc3F)ccc2nc1N)C1CCOCC1)CC1CC1 (stereo not drawn) [Compound 3] | 35 |  |  | 
CN(CC1CC1)C(=O)CCC(c1cc2cc(-c3ccccc3F)ccc2nc1N)C1CCOCC1 (stereo not drawn) [Compound 4] | 71 |  |  | 
CC(C)(CO)CNCCCC(c1cc2cc(-c3ccccc3F)ccc2nc1N)C1CCOCC1 (stereo not drawn) [Compound 6] |  | > 5000 | 43 | 
CC(C)(C)OCCNCCCC(c1cc2cc(-c3ccccc3F)ccc2nc1N)C1CCOCC1 (stereo not drawn) [Compound 10] |  | 830 | 47 | 
Nc1nc2ccc(-c3ccccc3F)cc2cc1C(CCC(=O)NCC1CCCCC1)C1CCOCC1 (stereo not drawn) [Compound 12] |  | 350 | 74.5 | 
CN(CCCC(c1cc2cc(-c3ccccc3F)ccc2nc1N)C1CCOCC1)CC1CCCCC1 (stereo not drawn) [Compound 13] | 77 |  |  | 
CC(C)(C)OCCNC(=O)CCC(c1cc2cc(-c3ccccc3F)ccc2nc1N)C1CCOCC1 (stereo not drawn) [Compound 15] |  | 540 | 113 | 
COc1cc2nc(N)c(C(CCCNCCC(C)(C)C)C3CCOCC3)cc2cc1-c1ccccc1F (stereo not drawn) [Compound 16] |  | > 620 | 88 | 
COc1cc2nc(N)c(C(CCn3cc(C(C)(C)C)nn3)C3CCOCC3)cc2cc1-c1ccccc1F (stereo not drawn) [Compound 17] |  | 1400 | 73 | 
CN(CC1CCCCC1)C(=O)CCC(c1cc2cc(-c3ccccc3F)ccc2nc1N)C1CCOCC1 (stereo not drawn) [Compound 18] | 77 |  |  | 
COc1cc2nc(N)c(C(CCC(=O)NCCC(C)(C)C)C3CCOCC3)cc2cc1-c1ccccc1F (stereo not drawn) [Compound 19] | 14 |  |  | 
COc1ccccc1-c1cc2cc(C(CCn3cc(C(C)(C)C)nn3)C3CCOCC3)c(N)nc2cc1OC (stereo not drawn) [Compound 20] |  | 890 | 92 | 
Nc1nc2ccc(-c3cccs3)cc2cc1C(CCC(=O)NC12CC3CC(CC(C3)C1)C2)C1CCOCC1 (stereo not drawn) [Compound 21] |  | 690 |  | inhibition at 1 µM: 87%
CCOc1cc2nc(N)c(C(CCn3cc(C(C)(C)C)nn3)C3CCOCC3)cc2cc1-c1ccccc1F (stereo not drawn) [Compound 22, 3-[3-(4-tert-Butyl-[1,2,3]triazol-1-yl)-1-(tetrahydro-pyran-4-yl)-propyl]-7-ethoxy-6-(2-fluoro-phenyl)-quinolin-2-ylamine] |  | 150 | 65 | 
Nc1nc2ccc(-c3ccccc3F)cc2cc1C(CCC(=O)NC12CC3CC(CC(C3)C1)C2)C1CCOCC1 (stereo not drawn) [Compound 23] |  | 570 |  | inhibition at 1 µM: 97%
Nc1nc2ccc(-c3ccccc3F)cc2cc1C(CCC(=O)N(CCN1CCCC1)C1CCCCC1)C1CCOCC1 (stereo not drawn) [Compound 41] |  | 450 | 65 | 
CC(C)(C)CCN(CCCC(c1cc2cc(-c3ccccc3F)ccc2nc1N)C1CCOCC1)CCN1CCOCC1 (stereo not drawn) [Compound 43, 3-[4-[(3,3-Dimethyl-butyl)-(2-morpholin-4-yl-ethyl)-amino]-1-(tetrahydro-pyran-4-yl)-butyl]-6-(2-fluoro-phenyl)-quinolin-2-ylamine] |  |  | 78 | 
COc1cc2nc(N)c(C(CCCN(CCN3CCOCC3)C3CCCCC3)C3CCOCC3)cc2cc1-c1ccccc1F (stereo not drawn) [Compound 52] |  | 3600 | 55 | 
COc1cc2nc(N)c(C(CCC(=O)N(CCN3CCOCC3)C3CCCCC3)C3CCOCC3)cc2cc1-c1ccccc1F (stereo not drawn) [Compound 53] |  | 2200 | 55 | 

Now from value to compound, other results behind:

% Inh @ 10 μM [%] | IC50 [nM] | inhibition at 10 µM [%] | Compound | further results
 | 260 | 83 | CC(C)(C)CCNC(=O)CCC(c1cc2cc(-c3ccccc3F)ccc2nc1N)C1CCOCC1 (stereo not drawn) [Compound 7] | 
93 | 1400 |  | Cn1ccnc1CN(CCC(C)(C)C)C(=O)CCC(c1cc2cc(-c3ccc[nH]3)ccc2nc1N)C1CCOCC1 (stereo not drawn) [Compound 24] | 
72 | 320 |  | Cn1ccnc1CN(CCC(C)(C)C)C(=O)CCC(c1cc2cc(-c3ccccc3)ccc2nc1N)C1CCOCC1 (stereo not drawn) [Compound 25] | 
 | 1800 | 91 | Cn1ccnc1N(CCC(C)(C)C)C(=O)CCC(c1cc2cc(-c3ccccn3)ccc2nc1N)C1CCOCC1 (stereo not drawn) [Compound 27] | 
 | 880 | 74 | CC(C)(C)CCN(CCCC(c1cc2cc(-c3ccccc3F)ccc2nc1N)C1CCOCC1)Cc1ccccn1 (stereo not drawn) [Compound 28] | 
 | 1500 |  | Cn1ccnc1CN(CCCC(c1cc2cc(-c3ccccc3F)ccc2nc1N)C1CCOCC1)CCC(C)(C)C (stereo not drawn) [Compound 29] | % Inh @ 1 μM: 54%
 | 420 | 98 | Cn1ccnc1CN(CCC(C)(C)C)C(=O)CCC(c1cc2cc(-c3cccs3)ccc2nc1N)C1CCOCC1 (stereo not drawn) [Compound 31, 4-(2-Amino-6-thiophen-2-yl-quinolin-3-yl)-N-(3,3-dimethyl-butyl)-N-(1-methyl-1H-imidazol-2-ylmethyl)-4-(tetrahydro-pyran-4-yl)-butyramide] | inhibition at 1 µM: 79%
 | 390 | 68 | CC(C)(C)CCN(Cc1ccccc1)C(=O)CCC(c1cc2cc(-c3ccccc3F)ccc2nc1N)C1CCOCC1 (stereo not drawn) [Compound 34] | 
 | 330 | 116 | CC(C)(C)CCN(Cc1ccccn1)C(=O)CCC(c1cc2cc(-c3ccccc3F)ccc2nc1N)C1CCOCC1 (stereo not drawn) [Compound 35] | 
 | 500 |  | COc1ccccc1-c1ccc2nc(N)c(C(CCCN(CCC(C)(C)C)c3nccn3C)C3CCOCC3)cc2c1 (stereo not drawn) [Compound 36] | inhibition at 1 µM: 76%
82 |  |  | Cn1ccnc1CN(CCC(C)(C)C)C(=O)CCC(c1cc2cc(-c3ccc(F)cc3)ccc2nc1N)C1CCOCC1 (stereo not drawn) [Compound 37] | 
 | 470 | 69 | Cn1ccnc1N(CCC(C)(C)C)C(=O)CCC(c1cc2cc(-c3cccc(F)c3)ccc2nc1N)C1CCOCC1 (stereo not drawn) [Compound 38] | 
 | 350 |  | Cn1ccnc1CN(CCC(C)(C)C)C(=O)CCC(c1cc2cc(-c3ccccc3F)ccc2nc1N)C1CCOCC1 (stereo not drawn) [Compound 39] | % Inh @ 1 μM: 93%
 | 320 | 65 | CC(C)(C)CCN(Cc1cncs1)C(=O)CCC(c1cc2cc(-c3ccccc3F)ccc2nc1N)C1CCOCC1 (stereo not drawn) [Compound 42] | 
 | 530 |  | COc1ccccc1-c1ccc2nc(N)c(C(CCC(=O)N(CCC(C)(C)C)Cc3nccn3C)C3CCOCC3)cc2c1 (stereo not drawn) [Compound 45] | % Inh @ 1 μM: 94%
 | 370 | 58 | CC(C)(C)CCN(CCN1CCOCC1)C(=O)CCC(c1cc2cc(-c3ccccc3F)ccc2nc1N)C1CCOCC1 (stereo not drawn) [Compound 47, 4-[2-Amino-6-(2-fluoro-phenyl)-quinolin-3-yl]-N-(3,3-dimethyl-butyl)-N-(2-morpholin-4-yl-ethyl)-4-(tetrahydro-pyran-4-yl)-butyramide] | 
99 |  |  | Cn1ccnc1CN(CCC(C)(C)C)C(=O)CCC(c1cc2cc(-c3cccc4cc[nH]c34)ccc2nc1N)C1CCOCC1 (stereo not drawn) [Compound 49] | 
22 |  |  | CCOc1ccc(-c2ccc3nc(N)c(C(CCC(=O)N(CCC(C)(C)C)Cc4nccn4C)C4CCOCC4)cc3c2)cc1 (stereo not drawn) [Compound 50] | 
 | 320 | 99 | CCOc1ccccc1-c1ccc2nc(N)c(C(CCC(=O)N(CCC(C)(C)C)Cc3nccn3C)C3CCOCC3)cc2c1 (stereo not drawn) [Compound 51, 4-[2-Amino-6-(2-ethoxy-phenyl)-quinolin-3-yl]-N-(3,3-dimethyl-butyl)-N-(1-methyl-1H-imidazol-2-ylmethyl)-4-(tetrahydro-pyran-4-yl)-butyramide] | 
8 |  |  | Cn1ccnc1CN(CCC(C)(C)C)C(=O)CCC(c1cc2cc(-c3cccc(C(F)(F)F)c3)ccc2nc1N)C1CCOCC1 (stereo not drawn) [Compound 54] | 
90 | 2400 |  | Cn1ccnc1CN(CCC(C)(C)C)C(=O)CCC(c1cc2cc(-c3ccccc3C(F)(F)F)ccc2nc1N)C1CCOCC1 (stereo not drawn) [Compound 55] | 
73 |  |  | Cn1ccnc1CN(CCC(C)(C)C)C(=O)CCC(c1cc2cc(-c3ccccc3OC(F)(F)F)ccc2nc1N)C1CCOCC1 (stereo not drawn) [Compound 56] | 
